Read-outs that look alike come from different tables or passages of the source.
Tests used:
[1] = test system: XPA-deficient cells; experiment: Viability of XPA-deficient versus proficient fibroblasts (Alamar blue); type: cell-based, human; conditions: 72 h, in words
Experimental: Figure 7 Sensitivity of nucleotide excision repair (NER) defective cells to hydroxamic acid- and benzamide-type HDACi. Viability of wild-type human fibroblasts and fibroblasts defective in nucleotide excision repair (NER) pathways (i.e., global genome nucleotide excision repair (GG-NER) or transcription-coupled nucleotide excision repair (TC-NER)) due to a defect in Xeroderma pigmentosum group A protein (XPA) or Cockayne syndrome protein B (CSB), respectively, was analyzed 72 h after the addition of HDACi by the Alamar blue assay, as described in Methods. The DNA intrastrand cross-linking agent cisplatin was used for control. Data shown are the mean ± SD from three independent experiments (n = 3) each performed in triplicate (N = 3); ns, not significant; *, p ≤ 0.05; **, p ≤ 0.01 as compared to the corresponding untreated controls (Student´s t-test).
V79 hamster lung cells, which are recommended in the OECD toxicology guidelines for hazard identification (i.e., cytotoxicity and genotoxicity) of chemicals, were purchased from the German Collection of Microorganisms and Cell Cultures (DSMZ, Braunschweig, Germany). They were cultured in Dulbecco´s modified Eagle medium and Ham´s F12 medium (DMEM/F12) (PromoCell, Heidelberg, Germany) containing 10% fetal calf serum at 37 °C in a humidified atmosphere containing 5% CO2. VC8 hamster cells were defective in DNA double-strand break (DSB) repair by homologous recombination (HR) due to the lack of functional BRCA2 protein [69, 70]. VC8 cells were provided by B. Kaina (Institute of Toxicology, Mainz, Germany). Nucleotide excision repair defective XPA and CSB deficient cells were also provided by B. Kaina and were described before. […]
Cell viability was determined using the Alamar blue assay, which reflected the mitochondrial activity. […] Afterwards, the Neutral red that was taken up by the cells was extracted (50% ethanol/1% of acetic acid, 15 min at room temperature (RT)) and absorbance (540 nm) was measured. […] Approximate IC50 (~IC50, see Supplementary Table S1) were calculated from the corresponding dose-response curves.

[2] = test system: V79 cells; experiment: Micronucleus assay; conditions: for micronucleus assay outcome at 50 μM (printed in Figure 2A) / Micronucl. Assay: V79; for Micronucl. Assay: summary grade
Experimental: We analyzed the frequency of micronuclei in binucleated cells, as described [86]. Briefly, logarithmically growing cells were treated with cytochalasin B (3 µg/m) for 24 h. After fixation with formaldehyde (3.7% in PBS, 20 min, RT) and washing with PBS, cells were permeabilized using precooled methanol (20 min, −20 °C.) After washing with PBS and rinsing the cell layer with PBS containing Triton X100 (PBST; 0.3% Triton X100 in PBS), DNA was stained by DAPI (4´,6-diamino-2-phenylindole) and the number of micronuclei was evaluated by fluorescence microscopy. Data shown are the mean ± SEM of three independent experiments with ≥1000 binucleated cells evaluated per experimental condition.

[3] = test system: V79 cells; experiment: DNA damage response (DDR) activation by Western blot; type: cell-based, hamster; conditions: for activation of DDR factors (γH2AX, p-p53, p-Chk1, p-Chk2, p-Kap1 protein levels): V79, Western blot, in words; for DDR Activation: summary grade, V79; on DDR Activation: key: −: no effect; 0: weak effect; +: moderate effect; ++: strong effect; +++: very strong effect as compared to untreated controls
Experimental: (§1) The activation of the DDR was investigated by Western blot analysis. To this end, total cell extracts were obtained by lysing an equal number of cells in Roti®-Load buffer (Carl Roth GmbH (Karlsruhe, Germany)) (5 min, RT). After sonication (EpiShear™ Probe sonicator, Active Motif, La Hulpe, Belgium), proteins were denatured by heating (5 min, 95 °C) and separated by SDS-PAGE (6% or 12.5% gel). Proteins were transferred onto a nitrocellulose membrane (GE Healthcare, Little Chalfont, UK) via the Protean Mini Cell System (BioRad (München, Germany)). The membrane was blocked with 5% non-fat milk in TBS/0.1% Tween 20 (MERCK, Darmstadt, Germany) (2 h, RT) and incubated with the corresponding primary antibody (1:1000, overnight, 4 °C). After washing with TBS/0.1% Tween 20, the secondary (peroxidase-conjugated) antibody was added (1:2000, 2 h, RT). The Fusion FX7 imaging system (PeqLab, Erlangen, Germany) was used for visualization of the bound antibodies. The following primary antibodies were used: Anti-Ser15 phosphorylated protein 53 (p-p53), anti-Talin-1, anti-Ser 345 checkpoint kinase 1 (p-Chk1), anti-cleaved caspase 3 and 7 (Cell Signaling, Beverly, MA, USA), anti-Ser824 phosphorylated Krüppel-associated box domain (KRAB)-associated protein-1 (p-Kap1), anti-Ser1981 phosphorylated ataxia telangiectasia mutated (pATM) and anti-Thr68 phosphorylated checkpoint kinase-2 (p-Chk2) (both Abcam, Cambridge, MA, USA), anti-Ser139 phosphorylated histone H2AX (γH2AX, Millipore, Billerica, MA, USA), and anti-β-actin (Santa Cruz, CA, USA). As secondary antibodies, horseradish peroxidase-conjugated secondary antibodies goat anti-mouse IgG and mouse anti-rabbit IgG (Rockland, Limerick, PA, USA) (2 h, RT) were used.

[4] = test system: V79 hamster lung cells; experiment: Alamar blue assay (cell viability), V79 cells; type: cell-based; conditions: for less cytotoxic to non-malignant V79 cells than to malignant neuroblastoma cells (IC50 based): selection criterion, IC50 of Table S1
Experimental: (§2) V79 hamster lung cells, which are recommended in the OECD toxicology guidelines for hazard identification (i.e., cytotoxicity and genotoxicity) of chemicals, were purchased from the German Collection of Microorganisms and Cell Cultures (DSMZ, Braunschweig, Germany). They were cultured in Dulbecco´s modified Eagle medium and Ham´s F12 medium (DMEM/F12) (PromoCell, Heidelberg, Germany) containing 10% fetal calf serum at 37 °C in a humidified atmosphere containing 5% CO2. VC8 hamster cells were defective in DNA double-strand break (DSB) repair by homologous recombination (HR) due to the lack of functional BRCA2 protein [69, 70]. VC8 cells were provided by B. Kaina (Institute of Toxicology, Mainz, Germany). Nucleotide excision repair defective XPA and CSB deficient cells were also provided by B. Kaina and were described before. They were grown in DMEM containing 10% fetal calf serum. Human neuroblastoma cells (IMR-32 and SH-SY5Y) were purchased from the German Collection of Microorganisms and Cell Cultures (DSMZ, Braunschweig, Germany) and were used as a model of malignant cells. They were grown in DMEM or RPMI (Roswell park memorial institute) medium, respectively, containing 10% fetal calf serum. If not stated otherwise, HDACi were added to the exponentially growing cells and analyses were performed 6 h to 72 h later.
(§3) Cell viability was determined using the Alamar blue assay, which reflected the mitochondrial activity. Viable cells were characterized by an effective mitochondrial metabolization of the non-fluorescent dye resazurin (Sigma, Steinheim, Germany) to fluorescent resorufin (excitation: 535 nm, emission: 590 nm). Relative viability in the untreated control was set to 100%. In addition, the Neutral red assay, which measures the integrity of lysosomal membranes, was used to monitor cytotoxicity. To this end, cells were incubated with the Neutral red solution (0.01%) in an atmosphere containing 5% CO2 for 90 min before they were fixed (1% formaldehyde/1% CaCl2). Afterwards, the Neutral red that was taken up by the cells was extracted (50% ethanol/1% of acetic acid, 15 min at room temperature (RT)) and absorbance (540 nm) was measured. If not stated otherwise, data are shown as the mean ± standard deviation (SD) of two to three independent experiments each performed in quadruplicate. Approximate IC50 (~IC50, see Supplementary Table S1) were calculated from the corresponding dose-response curves.

[5] = test system: V79 cells; experiment: Caspase-3/-7 cleavage by Western blot (apoptosis); type: cell-based, hamster; conditions: for activation of caspase-3 and -7: 10 µM, 24 h, V79, in words; for Apoptosis: summary grade, calculated on the basis of caspase-3,-7 cleavage and SubG1 population, V79; on apoptosis: key: −: no effect; 0: weak effect; +: moderate effect; ++: strong effect; +++: very strong effect as compared to untreated controls
Experimental: as §1

[6] = test system: SH-SY5Y neuroblastoma cells; experiment: Alamar blue assay (cell viability), SH-SY5Y cells; type: cell-based, human
Experimental: as §2, §3

[7] = test system: V79 hamster lung cells; experiment: Neutral red assay (cytotoxicity), V79 cells; type: cell-based
Experimental: as §2, §3

[8] = test system: IMR-32 neuroblastoma cells; experiment: Neutral red assay (cytotoxicity), IMR-32 cells; type: cell-based, human
Experimental: as §2, §3

[9] = V79, 24 h after drug treatment (values match Alamar blue data of Table S1), read-out: Viability (IC50) 24 h
[10] = V79, 72 h after drug treatment (values match Alamar blue data of Table S1), read-out: Viability (IC50) 72 h
[11] = 24 h, approximate IC50, read-out: IC50 - 24 h Treatment, SH-SY5Y
[12] = 72 h, approximate IC50, read-out: IC50 - 72 h Treatment, SH-SY5Y
[13] = 24 h, approximate IC50, read-out: IC50 - 24 h Treatment, V79
[14] = 72 h, approximate IC50, read-out: IC50 - 72 h Treatment, V79
[15] = 24 h, approximate IC50, read-out: IC50 - 24 h Treatment, IMR-32
[16] = 72 h, approximate IC50, read-out: IC50 - 72 h Treatment, IMR-32
[17] = Homo sapiens, SH-SY5Y, 24 h, approximate IC50, read-out: IC50 - 24 h Treatment, SH-SY5Y

Compound	sensitivity of XPA-deficient versus XPA proficient cells [1]	micronucleus assay outcome at 50 μM (printed in Figure 2A) [2]	Micronucl. Assay [2]	activation of DDR factors (γH2AX, p-p53, p-Chk1, p-Chk2, p-Kap1 protein levels) [3]	DDR Activation [3]	IC50 [4, 9] [µM]	IC50 [4, 10] [µM]	less cytotoxic to non-malignant V79 cells than to malignant neuroblastoma cells (IC50 based) [4] [fold]	activation of caspase-3 and -7 [5]	Apoptosis [5]	IC50 [6, 11] [µM]	IC50 [6, 12] [µM]	IC50 [7, 13] [µM]	IC50 [7, 14] [µM]	IC50 [8, 15] [µM]	IC50 [8, 16] [µM]	IC50 [6, 17] [µM]	further results
CN(C)c1ccc(C(=O)N(CC(=O)NCc2ccccc2)Cc2ccc(C(=O)NO)cc2)cc1 [DDK137]	XPA-deficient cells are even more resistant	Cytotoxic	+	substantial increase in γH2AX levels but no, or only a minor, increase in p-p53 and p-Chk1/p-Chk2 levels	+	33	11	≥ 10	activation of caspase-3 and -7	+	50	0.9	36	17	10	0.3		
Nc1ccccc1NC(=O)c1ccc(CNC(=O)OCc2cccnc2)cc1 [Entinostat, entinostat, reference compound]				substantial increase in γH2AX levels but no, or only a minor, increase in p-p53 and p-Chk1/p-Chk2 levels	+	> 50	7		only activated caspase-7 but not caspase-3	0							> 50	IC50 ([6]; Homo sapiens, SH-SY5Y, 72 h, approximate IC50, read-out: IC50 - 72 h Treatment, SH-SY5Y): 8 µM; IC50 ([7]; V79, 24 h, approximate IC50, read-out: IC50 - 24 h Treatment, V79): > 50 µM; IC50 ([7]; V79, 72 h, approximate IC50, read-out: IC50 - 72 h Treatment, V79): 2 µM; IC50 ([8]; Homo sapiens, IMR-32, 24 h, approximate IC50, read-out: IC50 - 24 h Treatment, IMR-32): > 50 µM; IC50 ([8]; Homo sapiens, IMR-32, 72 h, approximate IC50, read-out: IC50 - 72 h Treatment, IMR-32): 3 µM
Nc1ccc(F)cc1NC(=O)c1ccc(CONC(=O)C=Cc2cccnc2)cc1 [MPK77]			+	failed to provoke a clear increase in γH2AX protein level	−	> 50	50	≥ 10	nor did they activate the executor caspases-3 and -7	−	33	17	> 50	35	9	3		frequency of micronuclei ([2]; 24 h, V79, in words): slight but significant increase in the frequency of micronuclei
O=C(CCCCCCC(=O)Nc1ccccc1)NO [Vorinostat, vorinostat, reference compound]	XPA-deficient cells are even more resistant	Cytotoxic	+	substantial increase in γH2AX levels but no, or only a minor, increase in p-p53 and p-Chk1/p-Chk2 levels	+				activation of caspase-3 and -7	++							33	

Source: paper PMC7370100, “In Vitro Assessment of the Genotoxic Hazard of Novel Hydroxamic Acid- and Benzamide-Type Histone Deacetylase Inhibitors (HDACi)” (International Journal of Molecular Sciences, 2020)
